These results are taken from patent US9440983B2, “Pyrrolo[3,2-d]pyrimidine-2,4(3H,5H)-dione derivatives” (Hydra Biosciences, Inc., priority 2014, dated 2016).

Experiment [1] deals with T1, TRPC5 channel (Homo sapiens, UniProt Q9UL62).
T1 construct: expressed in transfected cells; host or cells: HEK293/TREx (Invitrogen), stably transfected, tetracycline-induced
T1 sequence (Q9UL62 1-973): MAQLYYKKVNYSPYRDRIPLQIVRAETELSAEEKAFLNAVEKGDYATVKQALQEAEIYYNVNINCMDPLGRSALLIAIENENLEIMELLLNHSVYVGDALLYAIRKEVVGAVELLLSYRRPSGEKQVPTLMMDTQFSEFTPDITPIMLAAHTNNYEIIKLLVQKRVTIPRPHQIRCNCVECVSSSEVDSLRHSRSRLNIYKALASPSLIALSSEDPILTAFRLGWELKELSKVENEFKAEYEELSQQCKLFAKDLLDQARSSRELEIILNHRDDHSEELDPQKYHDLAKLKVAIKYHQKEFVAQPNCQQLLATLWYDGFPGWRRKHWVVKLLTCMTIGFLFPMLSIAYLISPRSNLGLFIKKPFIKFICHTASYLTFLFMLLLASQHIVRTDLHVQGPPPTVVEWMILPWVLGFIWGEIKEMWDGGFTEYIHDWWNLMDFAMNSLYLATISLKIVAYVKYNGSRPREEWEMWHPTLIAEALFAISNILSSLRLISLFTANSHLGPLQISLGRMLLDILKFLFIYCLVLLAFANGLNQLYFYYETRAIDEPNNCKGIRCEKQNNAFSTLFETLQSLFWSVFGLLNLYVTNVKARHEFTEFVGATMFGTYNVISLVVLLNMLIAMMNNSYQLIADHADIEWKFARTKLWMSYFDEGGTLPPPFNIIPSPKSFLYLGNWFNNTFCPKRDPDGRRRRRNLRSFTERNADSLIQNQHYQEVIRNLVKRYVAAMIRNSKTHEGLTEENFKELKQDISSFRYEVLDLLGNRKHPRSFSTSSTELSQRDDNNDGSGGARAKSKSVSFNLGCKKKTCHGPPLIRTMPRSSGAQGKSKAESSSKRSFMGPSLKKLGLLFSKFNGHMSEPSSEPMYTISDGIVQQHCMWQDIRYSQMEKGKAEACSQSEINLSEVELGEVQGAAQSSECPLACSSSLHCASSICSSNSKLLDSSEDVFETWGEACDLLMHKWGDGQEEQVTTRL
Nature of the experiment: High throughput screening assay: Fluo4 cell-based fluorescence detection of intracellular Ca2+ rise. Conditions: HEK293/TREx cells inducibly expressing TRPC5, high-Ca2+ Ringer (14 mM Ca2+), 7 concentrations in triplicate. The source says: The assay depended on detection of the rise in intracellular Ca2+ concentration ([Ca2+]i) following channel activation in cells inducibly expressing the TRPC5 channel. Ca2+ rise was quantified with the use of fluorescent Ca2+ indicators that were loaded into cells and thereafter indicated the [Ca2+]i Ca2+ influx followed activation of the TRPC5 channel. Compounds inhibiting the [Ca2+]i rise were considered hits for further investigation.
The commercially available HEK293/TREx line (Invitrogen) was stably transfected with a TRPC5 construct and screened by conventional calcium imaging to find clones with TRPC5 expression following stimulation with 1 μg/ml tetracycline. These cells were maintained in the growth medium recommended by the manufacturer supplemented with 100 μg/ml hygromycin to promote retention of the TRPC5 construct. After growing to near confluency, cells were plated at a density of ˜35,000 cells/well in 384 well CellBind plates (Corning) in the presence of 1 μg/ml tetracycline, and allowed to grow for 20-30 hrs. A nearly confluent monolayer resulted. Cells were then loaded with Ca2+ dye: Fura-2/AM or Fluo4/AM was added to the wells to a final concentration of 4 μM or 0.5 μM, respectively, and incubated for 80 min or 60 min, respectively, at room temperature. Supernatant was then removed from the cells by inverting plates with a sharp flick, and 25 μl Hank's Balanced Salt Solution (HBSS; 0.185 g/l D-glucose, 0.9767 g/l MgS04 (anhydrous), 0.4 g/l KCl, 0.06 g/l KH2PO4 (anhydrous), 0.35 g/l NaHCO3, 8.0 g/l NaCl, and 0.04788 g/l Na2HPO4 (anhydrous); pH 7.4) was then added to each well. Following ˜0.5 hour for recovery from loading, cells were assayed using the Hamamatsu FDSS 6000 system, which permitted illumination alternately at 340 nm and 380 nm for Fura-2 experiments, or at 485 nm for Fluo4 experiments. Frames were acquired at a rate of 0.2 Hz. During the assay, the plates were continuously vortexed, with pipette mixing of wells following addition of each reagent. For the screening assay, 26 μl of a diluted compound stock (at 50 μM) was added to each well for 2 minutes following the collection of a short (4 frame) baseline. 13 μl 62 mM high-Ca2+ Ringer solution (4.17 ml of normal ringer (with 2 mM Ca2+) plus 5.83 ml of isotonic calcium ringer (105 mM Ca2+; in this ringer all sodium has been replaced with calcium)) was then added to each well, achieving a final concentration of 14 mM Ca2+ and 10 μM test compound. Data was collected for ˜3 minutes following addition of high Ca2+Ringer, where the fluorescent intensity (for Fluo4) and the F340/F380 ratio (for Fura-2) were proportional to the [Ca2+]i Negative controls consisted of HEK293/TREx TRPC5 cells exposed to high Ca2+ solution, but no compound. Positive control conditions consisted of addition of 2-APB, a promiscuous blocker of TRPC5 and other channels, to columns 23 and 24 of the plates, to a final concentration of 200 μM. These controls defined a screening window, and “hits” were defined as those compounds inhibiting the fluorescence response by at least 40%. IC50 values were determined for compounds defined as “hits.” The Fluo4 cell-based fluorescence assay was used to determine the intracellular Ca2+ concentration in the presence of varying drug concentration. Final concentrations of compounds tested were 20 μM, 6.667 μM, 2.222 μM, 0.741 μM, 0.247 μM, 0.082 μM, and 0.027 μM. Compounds were tested in triplicate at all concentrations. Standard software was used to fit IC50 curves.
Additionally or alternatively, efficacy can be represented as % inhibition in the presence (of a given concentration of compound) versus the absence of compound or in comparison to a control compound. For example, efficacy can be represented as % inhibition of ion flux in the presence versus the absence of compound.

In experiment [2] the target is T1, TRPC5 channel. Kind of experiment: Whole-cell patch clamp experiments, TRPC5 current. It is filed as cell-based. The note with it: whole-cell patch clamp in TRPC5-expressing HEK293 TREx cells; current activated by LaCl3; IC50 estimated. From the text: Patch clamp experiments permit the detection of currents through the TRPC5 channel in the cell line described above. In normal whole-cell patch clamp recordings, a glass electrode is brought into contact with a single cell and a high-resistance (gigaohm) seal is established with the cell membrane. The membrane is then ruptured to achieve the whole-cell configuration, permitting control of the voltage of the cell membrane and measurement of currents flowing across the membrane using the amplifier attached to the electrode and resulting in the replacement of cytoplasm with the pipette solution. A perfusion system permits control of the extracellular solution, including the addition of blockers and activators of the current. The current can be activated by including 1.4 μM free Ca^2+ in the pipette (intracellular) solution, and 80 μM LaCl3 in the extracellular solution. TRPC5 cells were induced 20-48 hours, removed from growth plates, and replated at low density (to attain good single-cell physical separation) on glass coverslips for measurement. In some cases, cells were grown in low density overnight on glass coverslips. […] Currents elicited were quantified at −80 mV and +80 mV. The internal solution consisted of 140 mM cesium aspartate, 10 mM HEDTA, 2 mM CaCl2, 2.27 mM MgCl2 and 10 mM HEPES, pH 7.2, with 1,400 nM calculated free Ca^2+. […]

Compound `Cc1c(-c2cccc(OC(F)(F)F)c2)[nH]c2c(=O)n(CCCO)c(=O)n(C)c12` [Compound 36, 3-(3-hydroxypropyl)-1,7-dimethyl-6-(3-(trifluoromethoxy)phenyl)-1H-pyrrolo[3,2-d]pyrimidine-2,4(3H,5H)-dione] came in with an IC50 at TRPC5 channel [1] of 7540 nM.
Same read-out and setting: with `Cc1c(-c2cccc(OC(F)(F)F)c2)n(C)c2c(=O)n(CCCO)c(=O)n(C)c12` [Compound 33, 3-(3-hydroxypropyl)-1,5,7-trimethyl-6-(3-(trifluoromethoxy)phenyl)-1H-pyrrolo[3,2-d]pyrimidine-2,4(3H,5H)-dione] the figure was 832 nM.
The same measure, in the same setting: the value for `Cn1c(=O)n(CCCO)c(=O)c2c1cc(-c1cccc(OC(F)(F)F)c1)n2Cc1ccc(Cl)cc1` [Compound 35, 5-(4-chlorobenzyl)-3-(3-hydroxypropyl)-1-methyl-6-(3-(trifluoromethoxy)phenyl)-1H-pyrrolo[3,2-d]pyrimidine-2,4(3H,5H)-dione] was 780 nM; that for `Cn1c(-c2cccc(OC(F)(F)F)c2)cc2c1c(=O)n(CCCO)c(=O)n2C` [Compound 32, 3-(3-hydroxypropyl)-1,5-dimethyl-6-(3-(trifluoromethoxy)phenyl)-1H-pyrrolo[3,2-d]pyrimidine-2,4(3H,5H)-dione] was 2940 nM.
Compound `Cc1cn(Cc2ccc(Cl)cc2)c2c(=O)n(CCCO)c(=O)n(C)c12` [Compound 34, 5-(4-chlorobenzyl)-3-(3-hydroxypropyl)-1,7-dimethyl-1H-pyrrolo[3,2-d]pyrimidine-2,4(3H,5H)-dione] had an IC50 against TRPC5 channel [1] of 3080 nM.
Take `Cn1c(=O)n(CCCO)c(=O)c2c1cc(-c1cccc(Cl)c1)n2Cc1ccc(Cl)cc1` [Compound 30, 5-(4-chlorobenzyl)-6-(3-chlorophenyl)-3-(3-hydroxypropyl)-1-methyl-1H-pyrrolo[3,2-d]pyrimidine-2,4(3H,5H)-dione]: the IC50 at TRPC5 channel [2] is 1.14 nM; against TRPC5 channel [1], 503 nM.
Take `Cc1c(-c2cccc(OC(F)(F)F)c2)n(Cc2ccc(Cl)cc2)c2c(=O)n(CCCO)c(=O)n(C)c12` [Compound 29, 5-(4-chlorobenzyl)-3-(3-hydroxypropyl)-1,7-dimethyl-6-(3-(trifluoromethoxy)phenyl)-1H-pyrrolo[3,2-d]pyrimidine-2,4(3H,5H)-dione]: at TRPC5 channel [1], half-maximal inhibition (IC50) required 421 nM.
Take `Cn1c(=O)n(CCCO)c(=O)c2c1c(-c1cccc(Cl)c1)cn2Cc1ccc(Cl)cc1` [Compound 37, 5-(4-chlorobenzyl)-7-(3-chlorophenyl)-3-(3-hydroxypropyl)-1-methyl-1H-pyrrolo[3,2-d]pyrimidine-2,4(3H,5H)-dione]: the half-maximal inhibitory concentration (IC50) at TRPC5 channel [2] was less than 1 nM; on TRPC5 channel [1], 408 nM.

Broadly, the IC50 is the midpoint of a concentration-inhibition curve.
